According to US20180042930A1, “METHODS OF TREATMENT OF MALIGNANCIES” (Celgene Corporation, priority 2016, published 2018):

Assays:
Format in all cases: in vivo, human
[1] = system: MDS and mIDH2 with co-occurring gene mutations; experiment: Example 3: association of co-occurring somatic mutations (FoundationOne Heme panel) with response to COMPOUND A
Description: (§1) Cheson et al., Blood. 108:419-425 (2006). […] Overall survival (OS) was estimated using Kaplan-Meier methods.
Analysis of MDS patients for association of gene mutations found with overall response rate (ORR) was performed on patients who received COMPOUND A and where a clinical response was captured for at least one time point during treatment (Table 12). An average of 2.6 genes were mutated in each patient beyond IDH2.

[2] = system: advanced hematologic malignancies with an IDH2 mutation; experiment: Phase 1/2 study of orally administered COMPOUND A: clinical activity (overall response rate); settings: 44 subjects treated at 100 mg QD; preliminary efficacy data
Description: This was a Phase 1/2, multicenter, open-label, 3-part (Phase 1 dose escalation, Phase 1 Part 1 Expansion, and Phase 2), safety, PK/PD, and clinical activity evaluation of orally administered COMPOUND A in subjects with advanced hematologic malignancies, for example MDS, that harbor an IDH2 mutation. The study included a dose escalation phase to determine MTD/MAD and/or RP2D, an expansion phase (Part 1) to further evaluate the safety, tolerability, and clinical activity of COMPOUND A, and a Phase 2 to assess the clinical efficacy of COMPOUND A at the RP2D and to further evaluate safety in subjects with refractory and relapsed AML carrying an IDH2 mutation.
Subjects in the dose escalation phase and Part 1 Expansion had the extent of their disease assessed, including bone marrow biopsies and/or aspirates and peripheral blood, at screening, on C1D15, C2D1, and C3D1, every 28 days (peripheral blood only) or every 56 days (bone marrow biopsies and/or aspirates and peripheral blood) thereafter while on study drug treatment, independent of dose delays and/or dose interruptions, and/or at any time when progression of disease was suspected. Response to treatment and treatment decisions in all subjects was determined by the Investigators based on modified International Working Group (IWG) response criteria or other appropriate response criteria for the malignancy under study. […]

[3] = system: patients with MDS and mIDH2; experiment: Example 2: safety, treatment-emergent adverse events
Description: A DLT was defined as outlined below.
as §1

`CC(C)(O)CNc1nc(Nc2ccnc(C(F)(F)F)c2)nc(-c2cccc(C(F)(F)F)n2)n1.CS(=O)(=O)O` [COMPOUND A, mesylate salt of 2-methyl-1-[(4-[6-(trifluoromethyl)pyridin-2-yl]-6-{[2-(trifluoromethyl)pyridin-4-yl]amino}-1,3,5-triazin-2-yl)amino]propan-2-ol] was tested, and the “ORR OR” value ([1]; ASXL1 mutation) was 2.500, the “ORR OR” value ([1]; KRAS mutation) was 0.214 and the “clinical responses (≧HI) by co-occurring mutation” value ([1]; MDS patients with mIDH2) was “observed in the presence of all mutations except TP53, U2AF1, SETBP1, TCF3, STAG2, NRAS, JAK2 and BRAF”. The “mutations enriched in MDS patients with clinical response (≧HI)” value ([1]; MDS patients with mIDH2) was “patients with mutations in SRSF2, MPL and ASXL1 are enriched”, the “ORR OR” value ([1]; MPL mutation) was 4.231 and the “ORR OR” value ([1]; SETBP1 mutation) was 0.082. For the same compound, the “ORR OR” value ([1]; SRSF2 mutation) was 12.000, the “ORR OR” value ([1]; TP53 mutation) was 0.082 and the “ORR OR” value ([1]; U2AF1 mutation) was 0.082. The ORR ([1]; patients with ASXL1 mutation) was 0.714, the ORR ([1]; patients with KRAS mutation) was 0.333 and the ORR ([1]; patients with MPL mutation) was 1.000. The ORR ([1]; patients with SETBP1 mutation) was 0.000, the ORR ([1]; patients with SRSF2 mutation) was 0.857 and the ORR ([1]; patients with TP53 mutation) was 0.000. The ORR ([1]; patients with U2AF1 mutation) was 0.000, the overall response rate [2] was 36.4% and the “Grade 3-4 TEAE hyperbilirubinemia (unconjugated)” value ([3]; MDS pts N=16) was 5 n. For the same compound, the “Grade 3-4 TEAE hypokalemia” value ([3]; MDS pts N=16) was 3 n, the “Grade 3-4 TEAE pneumonia” value ([3]; MDS pts N=16) was 4 n and the “Grade 3-4 TEAE thrombocytopenia” value ([3]; MDS pts N=16) was 3 n. The “Grade 3-4 treatment-emergent AEs (TEAEs)” value ([3]; MDS pts N=16) was 81%, the “Grade 3-4 treatment-emergent AEs (TEAEs), pts” value ([3]; MDS pts N=16) was 13 pts and the “grade 3-4 drug-related TEAE” value ([3]; MDS pts N=16) was 44%. For the same compound, the “grade 3-4 drug-related TEAE, pts” value ([3]; MDS pts N=16) was “Seven” and the “tolerability of daily oral monotherapy” value ([3]; MDS pts with mIDH2) was “well tolerated”.
